In assay [1] the test system is IL-8. The assay can be described thus: IL-8 assay (ELISA) in culture supernatants of NHEK after induction with IL-1β. The class given is cell-based, human. As for the experimental part: This study is carried out on normal human Keratinocytes (NHEK).
In this example, the anti-inflammatory properties of the compound (Ia) are evaluated by the assay of the IL-8, after the application of the cytokine IL-1β at 10 ng/ml onto NHEKs. IL-8 is a major inflammatory cytokine produced first of all during the inflammatory response of the keratinocytes. The quantification of the IL-8 in the culture supernatants allows an evaluation of the inflammatory state of the cells.
The IL-1β is added to the culture medium of the NHEKs at a rate of 10 ng/ml for 24 h. After incubation, the culture media are removed and replaced with culture media containing the compound (Ia) at 3 ppm. After 24 h of incubation, the supernatants are collected.
The reference anti-inflammatory element is dexamethasone (Sigma) used at 0.4 ppm. A control having undergone the same experimental conditions without the compound (Ia) (CTL), as well as a non-induced control (CTL without IL-1β), are also carried out.
The quantification of the IL-8 in 50 μl of the culture supernatants is measured by an ELISA test (human CXCL8/IL-8 Immunoassay, R&D Systems).
Each treatment is carried out in triplicate.
For orientation: ELISA stands for enzyme-linked immunosorbent assay.

Assay [2] deals with normal human Keratinocytes (NHEK). The assay can be described thus: Reactive oxygen species (H2DCFDA probe) in NHEK after single UVA stress. The assay is classed as cell-based. The protocol: The cells used for this example are normal human Keratinocytes (NHEK).
The antioxidant properties (neutralising the production of reactive oxygen species) of the compound (Ia) are evaluated after a single stress with UVAs on NHEKs, by a test based on the use of the fluorescent probe H2DCFDA on a triple culture.
H2DCFDA (2′-7′dichlorodihydrofluorescein diacetate, Fischer Scientific) is a probe that, after having diffused into the cell and after its acetate group has been split by intracellular esterases, can be oxidised by free radicals (H2O2) into DCF (2′-7′ dichlorofluorescein), a fluorescent compound. The production of the free radicals can thus be quantified by the level of fluorescence emitted by the oxidised probe. The more the cell produces free radicals, the higher the level of fluorescence detected.
After 24 hours of incubation with the compound (Ia) (3 ppm in an aqueous solution with 0.1% dimethylsulfoxide) or the reference elements, the cells are placed in the presence of the H2DCFDA probe at 3 ppm for 1 hour at 37° C., 5% CO2 in order to allow its intracellular diffusion.
The reference antioxidant elements are: Trolox ([…], Sigma), at 20 ppm and Quercetin (quercetin dihydrate, Sigma), at 18 ppm.
After one rinsing, the cells are subjected to a single stress with UVAs (in the absence of compound (Ia)) at a rate of 10 joules per square centimetre. The quantification of the fluorescence emitted (excitation: 485 nm; emission: 520 nm) is carried out immediately after the end of the UVA stress. […]
In order to provide a result representative of the cellular population of each condition after a single stress with UVAs, a cellular viability test (MTS) is carried out immediately after the quantification of the fluorescence emitted. The fluorescence values are thus normalised with respect to the cellular viabilities in order for it to be possible to compare the levels of fluorescence of the various conditions to each other.

Assay [3] concerns MMP-9. The assay can be described thus: Gene expression of MMP-9 by quantitative RT-PCR in NHEK. The assay is classed as cell-based, human. To be noted: (Ia) 3 ppm (10^−5M), 24 hours. As for the experimental part: In these examples, the expression of the messenger RNA is measured by the technique of quantitative RT-PCR (reverse transcription followed by polymerase chain reaction), after incubation in vitro of the various cell types in the absence or in the presence of compound (Ia).
This study was carried out on normal human dermal Fibroblasts (NHDF) or normal human epidermal Keratinocytes (NHEK). The compound (Ia) is tested at 10^−5M in an aqueous solution with 0.1% dimethylsulfoxide.
The cells are cultured at the concentration of 10,000 cells per well of 96-well plates, in the presence of standard culture medium according to the cell type.
The compound (Ia) is then added at the concentration (3 ppm), for 24 hours.
The supernatant is eliminated and the cells are taken up in a specific buffer for the extraction of the messenger RNA (mRNA). The mRNA is purified and reverse transcribed in the presence of a commercial reverse transcriptase.
The complementary DNA (cDNA) obtained is quantified by RT-PCR, by means of suitable primers. The rate of expression of the mRNA is normalised with 5 reference genes.
The cells used for this example are normal human keratinocytes (NHEK).

Each structure is given as a SMILES string.

Take `Cc1ncc(CO)c(CNC(=O)/C=C/c2ccc(O)c(O)c2)c1O` [Compound (Ia)]: the inhibition at 3 ppm in assay [1] (Homo sapiens, compound 3 ppm, versus control CTL, read-out: inhibition of the production of IL8 in keratinocytes subjected to inflammation in the presence of IL-1β) came to 30%. The “Quantification of the IL8 (optical density)” value in assay [1] (IL-1β 10 ng/ml 24 h, then substance 24 h, compound (Ia) 3 ppm, dexamethasone 0.4 ppm, CTL 0.23, CTL without IL-1β 0.06) is 0.16 optical density. Further, the “Assay of the fluorescence with H2DCFDA after irradiation of NHEKs with UVAs” value in assay [2] (24 h incubation, (Ia) 3 ppm, Trolox 20 ppm, Quercetin 18 ppm, UVA 10 J/cm2, normalised to viability (MTS), CTL UVA 289687.6, CTL without stress 16441.9) was found to be 198588.8. In assay [2] (NHEK, compound 3 ppm, single UVA stress, FIG. 1), the “reduction of the generation of intracellular H2O2 after UVA stress” value is recorded as 40%. In addition, in assay [3], the “Reduction of the gene expression compared to the basal level based on 100% (MMP-9)” value is reported as −75%.

For orientation: inhibition means the relative decrease from the control value, in per cent.

Source of the values: US10918891B2, “Cosmetic treatment method for the skin” (SYNTIVIA, priority 2016, dated 2021).
